We go through 77 sequences from the supplement of paper PMC11208160.
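Also: IS621 recombinase and bridge RNA in Escherichia coli cells.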

This series can be described thus: recombinant barcode read abundance after kanamycin selection (control-corrected) (log10(CPM+1)); higher = more efficient recombination; sequences stand for … in AGTGCAGAGAAAATCGGCCAGTTTTCTCTGCCTGCAGTCCGCATGCCGT…AGATTTATGCAGCGGACTGCCTTTCTCCCAAAGTGATAAACCGGACAGTATCATGGACCGGTTTTCCCGGTAATCCGTATTTGCAAGGTTGGTTTCACT; site = the 11-nt target. In a few lines:
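A vector carrying a T7-inducible recombinase and the last 73 bp of the bridge RNA received, by Gibson cloning, oligos encoding a promoter, target, barcode and the first 104 bridge RNA bases under J23119. The pooled constructs entered E. coli together with a donor plasmid by electroporation. Selection used chloramphenicol/ampicillin/kanamycin with 0.1 mM IPTG, with chloramphenicol/ampicillin LB agar as the control, each in two replicates. Recombination efficiency is the averaged, control-corrected counts-per-million of barcodes at recombinant junctions, reported as log10(CPM+1).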
Consider “TAGTATCCTTGGGTTCTAACCTGTTGCTA (site TAGTATCCTTA)”, for which the “recombinant barcode read abundance (log10)” value amounted to 0.714.
Next, “TAGTATCCTTGGGTTCTAACCTGTTGCTA (site TAGTATGCTTA)”: 0.0411; “TAGTCGTCTTGGGTTCTAACCTGTTGCTT (site TAGTCGTCTAA)”: 0.456.
Under “TAGTCGTCTTGGGTTCTAACCTGTTGCTT (site TAGTCGTCTAG)” stands 0.309; under “TAGTCTGCTTGGGTTCTAACCTGTTGCCT (site TAGACTGCTAG)”, 0.0965; under “TAGTCTGCTTGGGTTCTAACCTGTTGCCT (site TAGCCTGCTAG)”, 0.27.
Next, “TAGTCTGCTTGGGTTCTAACCTGTTGCCT (site TAGGCTGCTAG)”: 0.0685; “TAGTCTGCTTGGGTTCTAACCTGTTGCCT (site TAGTCTGCTAG)”: 0.0515; “TAGTGCTCTTGGGTTCTAACCTGTTGCCT (site TAGTGCTCTAG)”: 1.12.
For “TAGTGCTCTTGGGTTCTAACCTGTTGCCT (site TAGTGCTCTCG)”, the “recombinant barcode read abundance (log10)” value was 0.434.
Next, “TAGTGCTCTTGGGTTCTAACCTGTTGCCT (site TAGTGCTCTGG)”: 0.157; “TAGTGCTCTTGGGTTCTAACCTGTTGCCT (site TAGTGCTCTTG)”: 0.178; “TAGTGGCCTTGGGTTCTAACCTGTTGCCA (site TAGTGGACTTG)”: 0.095.
Next, “TAGTGGCCTTGGGTTCTAACCTGTTGCCA (site TAGTGGCCTTG)”: 0.261; “TAGTGTACTTGGGTTCTAACCTGTTGCCT (site TAGTGTACTAG)”: 0.579.
Under “TAGTGTACTTGGGTTCTAACCTGTTGCCT (site TAGTGTCCTAG)” stands 0.16; under “TAGTGTACTTGGGTTCTAACCTGTTGCCT (site TAGTGTGCTAG)”, 0.221.
On to “TAGTGTACTTGGGTTCTAACCTGTTGCCT (site TAGTGTTCTAG)”, for which the “recombinant barcode read abundance (log10)” value worked out at 0.376.
Turning to “TAGTGTCCTTGGGTTCTAACCTGTTGCAT (site TAGTGTCCTAT)”, the “recombinant barcode read abundance (log10)” value turned out to be 0.769.
Next, “TAGTGTCCTTGGGTTCTAACCTGTTGCAT (site TAGTGTTCTAT)”: 0.155; “TAGTTAACTTGGGTTCTAACCTGTTGCCA (site TAGTTAACTTG)”: 0.569; “TAGTTAACTTGGGTTCTAACCTGTTGCCA (site TAGTTCACTTG)”: 0.0909.
As for “TAGTTAACTTGGGTTCTAACCTGTTGCCA (site TAGTTGACTTG)”, the “recombinant barcode read abundance (log10)” value was 0.0635.
Consider “TAGTTAACTTGGGTTCTAACCTGTTGCCA (site TAGTTTACTTG)”, for which the “recombinant barcode read abundance (log10)” value came to 0.0484.
Next, “TAGTTAGCTTGGGTTCTAACCTGTTGCCG (site TAGTTAGCTAG)”: 0.0808.
Next, “TAGTTAGCTTGGGTTCTAACCTGTTGCCG (site TAGTTAGCTCG)”: 0.666; “TAGTTAGCTTGGGTTCTAACCTGTTGCCG (site TAGTTAGCTGG)”: 0.00835; “TAGTTAGCTTGGGTTCTAACCTGTTGCCG (site TAGTTAGCTTG)”: 0.0519.
Next, “TAGTTATCTTGGGTTCTAACCTGTTGCTA (site AGACGTACTAC)”: 0.134; “TAGTTATCTTGGGTTCTAACCTGTTGCTA (site TAGTTATCTTA)”: 0.0606; “TAGTTGCCTTGGGTTCTAACCTGTTGCCT (site TAATTGCCTAG)”: 0.296.
For “TAGTTGCCTTGGGTTCTAACCTGTTGCCT (site TACTTGCCTAG)”, the “recombinant barcode read abundance (log10)” value turned out to be 0.
Under “TAGTTGCCTTGGGTTCTAACCTGTTGCCT (site TAGTTGCCTAG)” stands 0.565; under “TAGTTGCCTTGGGTTCTAACCTGTTGCCT (site TATTTGCCTAG)”, 0.0554.
Next, “TATACACCTTGGGTTCTAACCTGTTGCGT (site CTCCGGGCTCT)”: 0.0474.
Next, “TATACACCTTGGGTTCTAACCTGTTGCGT (site TATACACCTAC)”: 1.48; “TATACCACTTGGGTTCTAACCTGTTGCCT (site TATACCACTAG)”: 0.541; “TATACCACTTGGGTTCTAACCTGTTGCCT (site TCGACCACTAG)”: 0.103.
For “TATATGACTTGGGTTCTAACCTGTTGCGG (site ATGCACGCTAG)”, the “recombinant barcode read abundance (log10)” value is 0.0662.
Under “TATATGACTTGGGTTCTAACCTGTTGCGG (site TATATGACTCC)” stands 1.41.
Next, “TATCCTCCTTGGGTTCTAACCTGTTGCCG (site GTGGAGTCTAC)”: 0.177.
Next, “TATCCTCCTTGGGTTCTAACCTGTTGCCG (site TATCCTCCTCG)”: 0.318; “TATCGGCCTTGGGTTCTAACCTGTTGCCT (site TAACGGCCTAG)”: 0.0814; “TATCGGCCTTGGGTTCTAACCTGTTGCCT (site TACCGGCCTAG)”: 0.0568.
Consider “TATCGGCCTTGGGTTCTAACCTGTTGCCT (site TAGCGGCCTAG)”, for which the “recombinant barcode read abundance (log10)” value turned out to be 0.0857.
Next, “TATCGGCCTTGGGTTCTAACCTGTTGCCT (site TATCGGCCTAG)”: 0.0996; “TATGCGCCTTGGGTTCTAACCTGTTGCCT (site CATGTGCCTAG)”: 0.149; “TATGCGCCTTGGGTTCTAACCTGTTGCCT (site TATGCGCCTAG)”: 0.327.
As to “TATGGGGCTTGGGTTCTAACCTGTTGCCT (site TATGAGGCTAG)”, the “recombinant barcode read abundance (log10)” value came to 0.145.
“TATGGGGCTTGGGTTCTAACCTGTTGCCT (site TATGCGGCTAG)”: the “recombinant barcode read abundance (log10)” value came to 0.0621.
Next, “TATGGGGCTTGGGTTCTAACCTGTTGCCT (site TATGGGGCTAG)”: 0.246; “TATGGGGCTTGGGTTCTAACCTGTTGCCT (site TATGTGGCTAG)”: 0.0518; “TATGTACCTTGGGTTCTAACCTGTTGCCT (site AATGTACCTAG)”: 0.052.
Under “TATGTACCTTGGGTTCTAACCTGTTGCCT (site CATGTACCTAG)” stands 0.234; under “TATGTACCTTGGGTTCTAACCTGTTGCCT (site GATGTACCTAG)”, 0.101; under “TATGTACCTTGGGTTCTAACCTGTTGCCT (site TATGTACCTAG)”, 1.46.
Next, “TATGTAGCTTGGGTTCTAACCTGTTGCCA (site TATGTAGCTAG)”: 0.22.
For “TATGTAGCTTGGGTTCTAACCTGTTGCCA (site TATGTAGCTCG)”, the “recombinant barcode read abundance (log10)” value was 0.0344.
Under “TATGTAGCTTGGGTTCTAACCTGTTGCCA (site TATGTAGCTGG)” stands 0.201.
For “TATGTAGCTTGGGTTCTAACCTGTTGCCA (site TATGTAGCTTG)”, the “recombinant barcode read abundance (log10)” value was 1.05.
“TATGTGGCTTGGGTTCTAACCTGTTGCCT (site TATGAGGCTAG)”: the “recombinant barcode read abundance (log10)” value was 0.551.
Next, “TATGTGGCTTGGGTTCTAACCTGTTGCCT (site TATGCGGCTAG)”: 0.296.
Next, “TATGTGGCTTGGGTTCTAACCTGTTGCCT (site TATGGGGCTAG)”: 0.0271.
For “TATGTGGCTTGGGTTCTAACCTGTTGCCT (site TATGTGGCTAG)”, the “recombinant barcode read abundance (log10)” value was determined as 0.179.
Under “TATGTGTCTTGGGTTCTAACCTGTTGCCT (site TAAGTGTCTAG)” stands 1.67; under “TATGTGTCTTGGGTTCTAACCTGTTGCCT (site TACGTGTCTAG)”, 0.509; under “TATGTGTCTTGGGTTCTAACCTGTTGCCT (site TAGGTGTCTAG)”, 0.0112.
Under “TATGTGTCTTGGGTTCTAACCTGTTGCCT (site TATGTGTCTAG)” stands 2.01; under “TATTACCCTTGGGTTCTAACCTGTTGCCT (site TATTAACCTAG)”, 0.035; under “TATTACCCTTGGGTTCTAACCTGTTGCCT (site TATTACCCTAG)”, 0.739.
Next, “TATTACCCTTGGGTTCTAACCTGTTGCCT (site TATTAGCCTAG)”: 0.0773; “TATTACCCTTGGGTTCTAACCTGTTGCCT (site TATTATCCTAG)”: 0.12; “TATTCTACTTGGGTTCTAACCTGTTGCGG (site TATTCTACTAC)”: 0.0937.
Turning to “TATTCTACTTGGGTTCTAACCTGTTGCGG (site TATTCTACTCC)”, the “recombinant barcode read abundance (log10)” value is 0.223.
Under “TATTCTACTTGGGTTCTAACCTGTTGCGG (site TATTCTACTGC)” stands 0.101; under “TATTCTACTTGGGTTCTAACCTGTTGCGG (site TATTCTACTTC)”, 0.169; under “TATTGGCCTTGGGTTCTAACCTGTTGCGT (site ACGACTACTCG)”, 0.0203.
